Experimental data reported in PubChem BioAssay AID743146 (Broad Institute, 2013).
Calls of active or inactive are those of the source.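 How the source made its calls: active means fitted half-maximal potency for cell killing at or below the highest valid dose tested for that sample; inconclusive means flat curve with 30 to 70% viability loss, or unreliable fit; inactive means the rest.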

Legend:
[1] = viability loss in A549 lung cancer cells – cell-based, CellTiter-Glo luminescence, dry powder, set 3, cytotoxicity control, dose response (AID 743146); settings: A549 viability, CellTiter-Glo ATP luminescence, 72 h; at 26 µM (top of the series)
[2] = tested on: A549 viability, CellTiter-Glo ATP luminescence, 72 h; test: as above

SMILES	activity change, negative = cytotoxicity [1]	AC50 [2]
O=C(NC1CCc2ccccc21)C1CCCN(C(=O)c2ccc(Cl)cc2)C1 (stereo not drawn)	-1.86% (inactive)	–
CC(CC(=O)NC1CCCc2ccccc21)NC(=O)c1ccccc1 (stereo not drawn)	0.372% (inactive)	–
NCCC(=O)N[C@@H]1CCCc2ccccc21	11.5% (inactive)	–
CN(C(=O)CCNC(=O)c1ccc(F)cc1F)C1CCCc2ccccc21 (stereo not drawn)	8.93% (inactive)	–
CC(c1ccccc1)N(C)C(=O)CCNC(=O)c1ccc(Cl)cc1 (stereo not drawn)	14% (inactive)	–
O=C(CCCNC(=O)c1ccc(C(F)(F)F)cc1)N[C@@H]1CCCc2ccccc21	-7.77% (inactive)	–
CC(C)(C)OC(=O)NCCC(=O)N[C@H]1CCCc2ccccc21	-0.649% (inactive)	–
O=C(CNC(=O)c1ccc(OC(F)(F)F)cc1)N[C@@H]1CCCc2ccccc21	8.39% (inactive)	–
O=C(CCNC(=O)c1ccc(Cl)cc1)NC1CCCCC1	8.46% (inactive)	–
O=C(CCn1cnc2ccccc2c1=O)NC1CCCc2ccccc21 (stereo not drawn)	-2.5% (inactive)	–
O=C(CCNC(=O)c1ccccc1)N[C@@H]1CCCc2ccccc21	-10.3% (inactive)	–
O=C(CNC(=O)c1ccc(C(F)(F)F)cc1)N[C@@H]1CCCc2ccccc21	11% (inactive)	–
O=C(Cc1ccc(Cl)cc1)NCCC(=O)N[C@@H]1CCCc2ccccc21	-2.28% (inactive)	–
CC(=O)NCCC(=O)N[C@@H]1CCCc2ccccc21	4.17% (inactive)	–
O=C(CCCNC(=O)c1ccc(Cl)c(Cl)c1)N[C@@H]1CCCc2ccccc21	-2.59% (inactive)	–
O=C(CCCNC(=O)c1ccc(Cl)cc1)N[C@@H]1CCCc2ccccc21	-5.3% (inactive)	–
CC(NC(=O)CCNC(=O)c1ccc(Cl)cc1)c1ccc2c(c1)OCO2 (stereo not drawn)	7.31% (inactive)	–

SMILES	activity change, negative = cytotoxicity [1]	AC50 [2]
COc1ccccc1C(=O)NCCC(=O)NC1CCCc2ccccc21 (stereo not drawn)	5.71% (inactive)	–
CC(NC(=O)CCNC(=O)c1ccc(Cl)cc1)c1ccc(F)cc1 (stereo not drawn)	1.56% (inactive)	–
O=C(CCNC(=O)c1ccc(Cl)cc1)NC1CCCc2ccccc21 (stereo not drawn)	–	26 µM
COc1ccccc1C(C)NC(=O)CCNC(=O)c1ccc(Cl)cc1 (stereo not drawn)	10% (inactive)	–
CC(CC(=O)N(C)C1CCCc2ccccc21)NC(=O)c1ccccc1 (stereo not drawn)	-7.34% (inactive)	–
O=C(CCNC(=O)c1ccc(F)cc1)N[C@@H]1CCCc2ccccc21	-10.3% (inactive)	–
O=C(NC1CCOc2ccccc21)C1CCCN(C(=O)c2ccc(Cl)cc2)C1 (stereo not drawn)	11.1% (inactive)	–
C[C@@H](NC(=O)CCNC(=O)c1ccc(Cl)cc1)c1ccccc1	-3.03% (inactive)	–
O=C(CNC(=O)c1ccc(Cl)c(Cl)c1)N[C@@H]1CCCc2ccccc21	-1.02% (inactive)	–
O=C(CCNC(=O)c1ccccc1Cl)NC1CCCc2ccccc21 (stereo not drawn)	-2% (inactive)	–
Cc1cccc(C(=O)NCCC(=O)NC2CCCc3ccccc32)c1 (stereo not drawn)	9.52% (inactive)	–
O=C(CCCNC(=O)c1ccc(OC(F)(F)F)cc1)N[C@@H]1CCCc2ccccc21	4.74% (inactive)	–
O=C(CNC(=O)c1ccc(Cl)cc1)N[C@@H]1CCCc2ccccc21	-3.21% (inactive)	–
O=C(CCNC(=O)c1ccc(Cl)cc1)N[C@@H]1CCc2ccccc21	0.571% (inactive)	–
CC(C)(C)OC(=O)NCCC(=O)N[C@@H]1CCCc2ccccc21	6.05% (inactive)	–
CC(NC(=O)C1CCCN(C(=O)c2ccc(Cl)cc2)C1)c1ccccc1 (stereo not drawn)	5.97% (inactive)	–
